Laboratory results taken from doi:10.1101/2020.09.01.277368v1, “Disulfiram inhibits M. tuberculosis growth by altering methionine pool, redox status and host-immune response” (biorxiv, 2020).

Legend:
[1] = biological target: T1, MetA (HSAT, homoserine acetyl transferase, Rv3341) (Mycobacterium tuberculosis, UniProt P9WJY9); experiment: endpoint DTNB CoA release assay; type: biochemical; conditions: read-out: % inhibition at 100 μM
T1 construct: gene metXA

[2] = biological target: T1, MetA (HSAT, homoserine acetyl transferase, Rv3341); experiment: ThermoFluor, SYPRO Orange; type: binding

T1 sequence (P9WJY9 whole entry, looked up): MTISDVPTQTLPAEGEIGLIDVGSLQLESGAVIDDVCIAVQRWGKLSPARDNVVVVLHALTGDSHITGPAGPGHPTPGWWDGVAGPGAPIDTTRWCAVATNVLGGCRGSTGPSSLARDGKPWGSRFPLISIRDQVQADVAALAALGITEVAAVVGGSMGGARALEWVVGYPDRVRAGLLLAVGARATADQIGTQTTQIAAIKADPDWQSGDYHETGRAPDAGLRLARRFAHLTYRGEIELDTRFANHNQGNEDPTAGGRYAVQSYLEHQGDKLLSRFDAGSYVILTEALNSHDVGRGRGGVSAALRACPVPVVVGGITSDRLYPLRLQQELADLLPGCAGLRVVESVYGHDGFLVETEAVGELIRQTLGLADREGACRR

Which results are given for `CCN(CC)C(=S)SSC(=S)N(CC)CC` [DIS, disulfiram]?
inhibition at 100 µM [1]: > 50%; Kd [2]: 52.7 µM

For `CN(C)C(=S)SSC(=S)N(C)C` [NSC1771, thiram], which inhibition at 100 µM [1] is on record?
The inhibition at 100 µM was > 50%.
